Key:
[1] = system: monocotyledonous and dicotyledonous harmful plant species; settings: stated as known; cited from earlier work
Lolium multiflorum = assay: Greenhouse pot trial, post-emergence herbicidal activity; type: in vivo; settings: single post-emergence treatment, 12 g/ha of indaziflam, BBCH growth stage 11-12
Experimental: (§1) In separate pots, biological trials were conducted in the greenhouse under identical conditions (apart from the treatment with the different products P1 and P2 mentioned above). Each pot contained the same soil and the same amount of seeds of each of the following weeds (two monocotyledonous and two dicotyledonous harmful plant species (weed species)):
(§2) Tables 1 to 4 reflect the respective observed herbicidal activity ratings after treatment of the monocotyledonous harmful plant species (BBCH growth stage 11) and dicotyledonous harmful plant species (BBCH growth stage 10) for the different products applied once in post-emergence.
(§3) The observation period in each case was 40 days after start of treatment with the respective products P1 and P2 mentioned above, both in amounts of 3 L/ha and 5 L/ha, respectively.
(§4) Tables 5 to 8 reflect the respective observed herbicidal activity ratings after treatment of the monocotyledonous harmful plant species (BBCH growth stage 12-13) and dicotyledonous harmful plant species (BBCH growth stage 12) for the different products applied once in post-emergence. The observation period in each case was 40 days after start of treatment with the respective products P1 and P2 mentioned above, both in amounts of 3 L/ha and 5 L/ha, respectively.
(§5) Table 9 reflects the post-emergence efficacy of indaziflam [the ratio by weight of the (1*R)-1-fluoroethyl diastereoisomer of indaziflam to the ratio by weight of the (1*S)-1-fluoroethyl diastereoisomer of indaziflam was about 95:5] on the above mentioned weeds (two monocotyledonous and two dicotyledonous harmful plant species (weed species)) AMARE, STEME, LOLMU and POOAN, each at BBCH growth stage 11-12. Indaziflam was used in an amount of 12 g/ha.

Poa annua = assay: as above; type: in vivo; settings: single post-emergence treatment, 12 g/ha of indaziflam, BBCH growth stage 11-12
Experimental: as §1, §2, §3, §4, §5

Stellaria media = assay: as above; type: in vivo; settings: single post-emergence treatment, 12 g/ha of indaziflam, BBCH growth stage 11-12
Experimental: as §1, §2, §3, §4, §5

Amaranthus retroflexus = assay: as above; type: in vivo; settings: single post-emergence treatment, 12 g/ha of indaziflam, BBCH growth stage 11-12
Experimental: as §1, §2, §3, §4, §5

Cc1ccc2c(c1)[C@H](Nc1nc(N)nc([C@@H](C)F)n1)[C@@H](C)C2 (mixture of isomers) [indaziflam, N^2-[(1R,2S)-2,3-dihydro-2,6-dimethyl-1H-inden-1-yl]-6-[(1RS)-1-fluoroethyl]-1,3,5-triazine-2,4-diamine]
post-emergence efficacy [1]: insufficient
Regrowth (ratings of herbicidal activity) (Lolium multiflorum): no herbicidal effect
Regrowth (ratings of herbicidal activity) (Poa annua): no herbicidal effect
Regrowth (ratings of herbicidal activity) (Stellaria media): no herbicidal effect
Regrowth (ratings of herbicidal activity) (Amaranthus retroflexus): very weak herbicidal effect starting on day 7 after treatment

— patent US10334854B2, “Herbicide combinations comprising glufosinate and indaziflam” (BAYER CROPSCIENCE AKTIENGESELLSCHAFT, priority 2016, dated 2019)
